Among the data in the OligoGym collection are target mRNA inhibition values, retold here.

Where “and” joins values, the source holds several entries; their conditions need not be identical. Equal entries are not always repeated. After the bases stand the sugars from the 5' end (letter, count) and the backbone: PS all phosphorothioate, else s phosphorothioate and o phosphodiester by linkage. Methylation of C is not given here. e = 2'-O-(2-methoxyethyl) (MOE); k = constrained ethyl (cEt); d = 2'-deoxy (DNA)

For the first data set, the target named is MALAT1. The conditions noted are these: ASO, A431, 0.005 µM.
In the case of AAAACTTATCTGCGGT (sugars k3 d10 k3, PS), the target mRNA inhibition is 54% and 41%. On to AAAAGTAGTTCTTCGG (sugars k3 d10 k3, PS), for which the target mRNA inhibition was 18%. As for AAACATTGCCTACCAC (sugars k3 d10 k3, PS), the target mRNA inhibition was -9%.

Take AAACCTGGGCTCCCGG (sugars k3 d10 k3, PS): the target mRNA inhibition was found to be 20%. AAAGATCGCCTTCAAA (sugars k3 d10 k3, PS): the target mRNA inhibition is 32%.

With AAATACGACTGCTTAA (sugars k3 d10 k3, PS), the target mRNA inhibition is 22%. Take AAATCATTGGGAGTTA (sugars k3 d10 k3, PS): the target mRNA inhibition is 24%.

For AAATCCCCTAGGGAAG (sugars k3 d10 k3, PS), the target mRNA inhibition is -8%.

For AAATCCCTTTACACCT (sugars k3 d10 k3, PS), the target mRNA inhibition was found to be 23%. As for AAATCCTGATCTGGTC (sugars k3 d10 k3, PS), the target mRNA inhibition stood at 27%. In the case of AAATCGGAGCAGCACG (sugars k3 d10 k3, PS), the target mRNA inhibition is 16%.

Turning to AAATGGCGGACTTTCT (sugars k3 d10 k3, PS), the target mRNA inhibition is 17%. Regarding AAATTACACCAGTCCT (sugars k3 d10 k3, PS), the target mRNA inhibition is 45%.

Turning to AAATTGCACTCGCTCC (sugars k3 d10 k3, PS), the target mRNA inhibition stood at 28%. For the sequence AACAACTCGCATCACC (sugars k3 d10 k3, PS), the target mRNA inhibition was 17%.

Take AACAAGTAAGCCCCAC (sugars k3 d10 k3, PS): the target mRNA inhibition worked out at 11%. The same measure, in the same setting: the same measure for AACAATTACCTAAACC (sugars k3 d10 k3, PS): 16%. On to AACAGGTCATCTATTC (sugars k3 d10 k3, PS), for which the target mRNA inhibition came to 33%. Take AACATATTGCCGACCT (sugars k3 d10 k3, PS): the target mRNA inhibition came to 45%. Still for that read-out and setting: for AACCACAACAATTTAG (sugars k3 d10 k3, PS) the value was 16%; for AACCCCAAGACCAAAC (sugars k3 d10 k3, PS), 11%. AACCTATTGACTATAT (sugars k3 d10 k3, PS): the target mRNA inhibition stood at 19%. As for AACGAAACATTGGCAC (sugars k3 d10 k3, PS), the target mRNA inhibition amounted to 48%.

Turning to AACGGGTCATCAAACA (sugars k3 d10 k3, PS), the target mRNA inhibition is -25%.

Regarding AACTAGCACCTGCAGA (sugars k3 d10 k3, PS), the target mRNA inhibition came out at 17%.

In the case of AACTTATCTGTTAACA (sugars k3 d10 k3, PS), the target mRNA inhibition worked out at 30%. Consider AACTTGGAAGTTGATA (sugars k3 d10 k3, PS), for which the target mRNA inhibition was found to be 19%. On to AAGACTAAAGGCTTCA (sugars k3 d10 k3, PS), for which the target mRNA inhibition was found to be 21%. On to AAGAGCATTGGAGATC (sugars k3 d10 k3, PS), for which the target mRNA inhibition amounted to 33%.

Take AAGCACTTATCCCTAA (sugars k3 d10 k3, PS): the target mRNA inhibition turned out to be 25%.

AAGCATTCCTTCGGAT (sugars k3 d10 k3, PS): the target mRNA inhibition is -8%.

Regarding AAGCATTGCCCTTCTA (sugars k3 d10 k3, PS), the target mRNA inhibition was found to be 46%. AAGCCCACCCTCTAAG (sugars k3 d10 k3, PS): the target mRNA inhibition is 21%. Turning to AAGCCGCCTGCTACCT (sugars k3 d10 k3, PS), the target mRNA inhibition was -16%. Same read-out and setting: the same measure for AAGCTACAACAAGTAA (sugars k3 d10 k3, PS): 10%. In the case of AAGGCTCCATGGTTGT (sugars k3 d10 k3, PS), the target mRNA inhibition was determined as 32%.

With AAGTAGACCAACTAAG (sugars k3 d10 k3, PS), the target mRNA inhibition was -22%. Consider AAGTATTACTCTAATC (sugars k3 d10 k3, PS), for which the target mRNA inhibition was found to be 9%. As to AAGTGCTCACAAGGCA (sugars k3 d10 k3, PS), the target mRNA inhibition is -16%. As to AAGTGGTTGCCCGCTT (sugars k3 d10 k3, PS), the target mRNA inhibition turned out to be 22%. As for AATACTTCATTACCCC (sugars k3 d10 k3, PS), the target mRNA inhibition amounted to 45%. Same read-out and setting: for AATCACTACTCCAAGC (sugars k3 d10 k3, PS) the value was 29%. Turning to AATCATACTCCAGTCG (sugars k3 d10 k3, PS), the target mRNA inhibition was 35%. Turning to AATCCCCCCCAAGATT (sugars k3 d10 k3, PS), the target mRNA inhibition is -5%.

AATCCTGATCTGGTCC (sugars k3 d10 k3, PS): the target mRNA inhibition is 46% and 66%.

For the sequence AATCGCACTGGCTCCT (sugars k3 d10 k3, PS), the target mRNA inhibition was 25%.

On to AATCGCCATGGAAAGC (sugars k3 d10 k3, PS), for which the target mRNA inhibition is -4%. As to AATGACGCAATTCTCC (sugars k3 d10 k3, PS), the target mRNA inhibition stood at 21%. On the same count and under the same terms, for AATGGTAGATTCCGTA (sugars k3 d10 k3, PS) the value was 47%; for AATTAATGCACTGGTA (sugars k3 d10 k3, PS), 19%; for AATTACACCAGTCCTT (sugars k3 d10 k3, PS), 42%. With AATTACCTAAACCCAC (sugars k3 d10 k3, PS), the target mRNA inhibition stood at 0%. Consider AATTGCACTCGCTCCT (sugars k3 d10 k3, PS), for which the target mRNA inhibition was 29%. Take ACAAATACGACTGCTT (sugars k3 d10 k3, PS): the target mRNA inhibition was found to be 16%. Turning to ACAAGGCAAATCGCCA (sugars k3 d10 k3, PS), the target mRNA inhibition was 17%. As to ACACCTTGAGTCATTT (sugars k3 d10 k3, PS), the target mRNA inhibition came out at 50%. Same read-out and setting: the same measure for ACAGGAAGGCTCCATG (sugars k3 d10 k3, PS): 25%; for ACATTAAGTTGGTAAT (sugars k3 d10 k3, PS): 4%.

Regarding ACATTGCCTACCACTC (sugars k3 d10 k3, PS), the target mRNA inhibition was 16%. As for ACCAAATCGCACTGGC (sugars k3 d10 k3, PS), the target mRNA inhibition is 3%.

With ACCACTCGCTTTCCCT (sugars k3 d10 k3, PS), the target mRNA inhibition turned out to be 35%. For the sequence ACCCAGTGGCTCATAT (sugars k3 d10 k3, PS), the target mRNA inhibition was found to be 16%. As to ACCCCCGGAACTTTTA (sugars k3 d10 k3, PS), the target mRNA inhibition worked out at 9%. Take ACCGGAGCAGGAAGAA (sugars k3 d10 k3, PS): the target mRNA inhibition turned out to be 4%.

As for ACCTAAACCCACCCCA (sugars k3 d10 k3, PS), the target mRNA inhibition is -1%. With ACCTTAACATCTTGTT (sugars k3 d10 k3, PS), the target mRNA inhibition was determined as 15%.

For ACCTTCATCACCAAAT (sugars k3 d10 k3, PS), the target mRNA inhibition worked out at 22%. With ACGAAAGTCCTTCACA (sugars k3 d10 k3, PS), the target mRNA inhibition came to 11%.

Regarding ACGCAACTGAGCCCCA (sugars k3 d10 k3, PS), the target mRNA inhibition was -44%. As to ACGCCTCAATCCCACA (sugars k3 d10 k3, PS), the target mRNA inhibition was 27%. Regarding ACGGAAATTTTTCTAC (sugars k3 d10 k3, PS), the target mRNA inhibition came out at 4%.

Regarding ACGGCCCGCACGGAAA (sugars k3 d10 k3, PS), the target mRNA inhibition is 16%. As for ACGGTTGAGAAGTGGC (sugars k3 d10 k3, PS), the target mRNA inhibition worked out at 22%. As to ACTAAACAATTACCTA (sugars k3 d10 k3, PS), the target mRNA inhibition was found to be 9%. On to ACTAAGCGAATGGCTT (sugars k3 d10 k3, PS), for which the target mRNA inhibition is -9%. As for ACTACTCCAAGCATTG (sugars k3 d10 k3, PS), the target mRNA inhibition is 36%. Take ACTAGCACCTGCAGAG (sugars k3 d10 k3, PS): the target mRNA inhibition worked out at 23%. Same read-out and setting: the same measure for ACTCAGAAGATGTTAT (sugars k3 d10 k3, PS): 30%; for ACTCGCTTTCCCTGTG (sugars k3 d10 k3, PS): 35%. Consider ACTCTAATCACTGTCA (sugars k3 d10 k3, PS), for which the target mRNA inhibition was determined as 35%. ACTCTGATCATAATCT (sugars k3 d10 k3, PS): the target mRNA inhibition came to 35%.

With ACTGAACTGTTTAAAC (sugars k3 d10 k3, PS), the target mRNA inhibition amounted to 6%. For the sequence ACTGGATAAGTATTAT (sugars k3 d10 k3, PS), the target mRNA inhibition is 46%.

For the sequence ACTTATCTGTTAACAG (sugars k3 d10 k3, PS), the target mRNA inhibition amounted to 25%.

Consider ACTTGGAAGTTGATAT (sugars k3 d10 k3, PS), for which the target mRNA inhibition was 4%. Turning to ACTTTAAATTGGTAGC (sugars k3 d10 k3, PS), the target mRNA inhibition turned out to be 28%. On the same count and under the same terms, for AGAACCACACACTACC (sugars k3 d10 k3, PS) the value was 23%; for AGACCAACCCCCAGTT (sugars k3 d10 k3, PS), 0%.

The target of the next data set is IRF4. The conditions noted are these: ASO, MM.1R, 1 µM.
For the sequence TTTATGTTAGCCAATT (sugars k3 d10 k3, PS), the target mRNA inhibition is 25% and 13%.

“TTTATGTTAGCCAATT (sugars kdddddddddkekeke, PS)”: the target mRNA inhibition is 5% and 14%. For “TTTATGTTAGCCAATT (sugars kkddddddddddkeke, PS)”, the target mRNA inhibition is 11% and -5%. Still for that read-out and setting: for TTTCAACTTGTGACCC (sugars k3 d10 k3, PS) the value was 1%; for TTTCAGGAGCTAGTTT (sugars k3 d10 k3, PS), 8%.

Staying with this data set, now noted: ASO, SK-MEL-28, 4 µM.
With TTTCAAATCGACTGCC (sugars k3 d10 k3, PS), the target mRNA inhibition was 31%. Regarding TTTCATAGCTAGTTCA (sugars k3 d10 k3, PS), the target mRNA inhibition amounted to 56%.

Consider TTTTAAGGCCCTGTCA (sugars k3 d10 k3, PS), for which the target mRNA inhibition was determined as 18%.

On to TTTTAGTTCATACCCA (sugars k3 d10 k3, PS), for which the target mRNA inhibition stood at 52%. TTTTTCCATATGACCC (sugars k3 d10 k3, PS): the target mRNA inhibition worked out at 75%.
